Test results from PMC11874779 (Drug Design, Development and Therapy, 2025).

System: Baf3-EGFR^19del/T790M/C797S
Assay: Xenograft tumor model
Assay type: in vivo, BALB/c nude mice
Settings: 100 mg/kg ig daily, 9 days, from tumor weight

SMILES: C=CC(=O)Nc1cc(Nc2nccc(-c3cn(C)c4ccccc34)n2)c(OC)cc1N(C)CCN(C)C [Osimertinib]
- Tumor Growth Inhibition value (TGI): 13.5%
